Patent US6159988A, “Arylcycloalkyl derivatives, their production and their use” (Hoeschst Aktiengesellschaft, priority 1992, dated 2000)
Structures can show the parent of a compound that is named as a salt.

Columns and labels:
IL-1 = IL-1 release inhibition (Table 2); format: cell-based, human; conditions: Homo sapiens; 5 μM; read-out: IL-1 Rel. Inhib.
Method: (§1) 10 ml of human blood were carefully drawn from the antecubital vein using a syringe containing 1 ml of a solution of 3.8% sodium citrate. After dilution with 10 ml PM 16 (Serva, Heidelberg, FRG) and underlayering with 15 ml Lymphoprep® (Molter GmbH), the sample was centrifuged at 400×g for 40 min at 20° C. The mononuclear cells forming a white ring between lymphoprep and plasma were carefully aspirated by a syringe, diluted 1:1 with PM 16 and centrifuged again at 400×g for 10 min. […] was washed with 10 ml RPMI 1640 (Gibco, Berlin, FRG), containing additionally 300 mg/l L-glutamine, 25 mmol/l […] HEPES, 100 μg/ml streptomycin and 100 μg/ml penicillin. Finally, using a Coulter counter IT, the cell suspension was adjusted to 5×10^6 cells/ml. The cells consist of approx. 90% lymphocytes and 10% monocytes.
10 μl DMSO/water (1:10, v/v), containing the test compound, was added to 480 μl of a suspension, containing 5×10^6 mononuclear cells. The synthesis of IL-1 was stimulated by the addition of 10 μl DSMO/water (1:10, v/v), containing 0,5 μg LPS (Salmonella abortus equi, Sigma). After incubation at 37° C. for 18 hours, the samples were cooled to 0° C. and centrifuged for 1 min. in a table centrifuge. 25 μl aliquots of the supernatant were assayed for IL-1 alpha activity using a commercially available 125-J-IL-1-alpha radioimmunoassay Kit (Amersham/UK), and for IL-1 beta in a similar way using the specific test kit. Control experiments were performed as described without test compound, or with cycloheximide as a test compound.

[1] = Oral bioavailability in the dog; format: in vivo; conditions: 10 mg/kg oral (vs 1 mg/kg intravenous), plasma
Method: (§2) Since the test compound produced significant activity in the adjuvant arthritic rats and experimental allergic encephalomyelitic guinea pigs when administered orally, the extent of oral bioavailability of this compound was estimated in rats and dogs. Compound 9 of Table 2 was administered intravenously (1 mg/kg) to conscious rats and dogs and blood samples were collected at various time points after administration. Similarly, the test compound was also administered orally (10 mg/kg) to a different set of rats and dogs and blood samples were collected at various time points. The blood samples were extracted and were analyzed by HPLC to obtain the concentration of compound 9 in the plasma. The plasma levels obtained after intravenous and oral administration were plotted against time, areas under the curves were calculated and percent bioavailability were estimated.

[2] = Oral bioavailability in the rat; format: in vivo; conditions: 10 mg/kg oral (vs 1 mg/kg intravenous), plasma
Method: as §2

[3] = test system: adjuvant arthritis in rats; assay: Adjuvant-induced arthritis in rats; format: in vivo, rat (female Wistar); conditions: 3, 10, and 30 mg/kg orally once a day, 12 days
[4] = test system: experimental allergic encephalomyelitis (EAE) in guinea pigs; assay: Experimental allergic encephalomyelitis (EAE) in guinea pigs; format: in vivo, guinea pig; conditions: 3 mg/kg orally once daily for 10 days
Text: This method permits the evaluation of the potential of the test compound in preventing the development of an autoimmune disorder leading to demyelination in the guinea pigs which can be equated to multiple sclerosis disease in humans. EAE is a reproducible chronic inflammatory autoimmune disease of the central nervous system in which an animal is immunized with either a homologous or heterologous extract of the whole brain and spinal cord, which contains the basic myelin protein together with Freund's Complete Adjuvant (FCA). A pathological condition would set in during ten to twenty days following immunization, which is characterized by weight loss, abnormal gait, mild to severe ataxia, paraparesis and moribund state leading to death. The potential of the test compounds to prevent this autoimmune condition was evaluated by observing the severity of the disease and mortality in comparison with untreated and hydrocortisone (standard drug) treated animals.
Guinea pigs (200-300 g) were randomly distributed into groups of 10 each after receiving 0.075 ml of it brain and spinal cord extract in FCA intradermally on the back and 0.050 ml intrapedally in one hind paw. Compound 9 of Table 2 was administered orally at 3 mg/kg once daily for 10 days. The standard compound was administered 100 mg/kg p.o. once daily for 10 days. The weights of the animals were noted every day. Eight days after the induction of the disease, the animals were rated regularly for the severity of the disease and mortality was monitored.

[5] = test system: Cotton Pellet Granuloma in Rats; assay: Inhibition of carrageenin cotton pellet granuloma in rats; format: in vivo, rat (Wistar); conditions: p.o. × 5
Method: The implantation of carrageenin impregnated cotton pellets results in production of large, well-defined granuloma which are easily dissected. The potency of the compounds are assessed by measuring the reduction in granuloma tissue formation.
Cotton wool pellets weighing 40 mg were used for sterilization.
Pellets were dried overnight under a lamp. The pellets in the weight range of 42-44 mg were selected.
Rats (in groups of 6, male or female, Charles River, Wistar, weighing 140-150 g) were anaesthetized with ether. The back was shaved and cleaned; swabbed with alcohol and one centimeter incision was made in the lower midback. A small channel was made bilaterally using a blunt forceps and one cotton pellet placed in each channel. Air from the incision was removed and the wound was stitched. […] Three hours after the administration of the last dose on day 7, animals were sacrificed. The pellets were removed by cutting the skin along the dorsal midline and peeling the skin away from the bodywall in both lateral directions. The pellets were weighed and then placed in drying oven at 140° C. overnight. The dry weights were then recorded and the amount of granuloma was assessed by subtracting the original pellet weight from wet weights and dry weights. The data was evaluated using the difference of left and right weights (cf. Table 4).

IL-1 alpha = assay: Inhibition of LPS stimulated IL-1 alpha release from human mononuclear cells; format: cell-based; conditions: 18 hours, 37° C., read-out: Approx. IC50 (LPS stimulated IL-1 alpha)
Method: as §1
10 μl DMSO/water (1:10, v/v), containing the test compound, was added to 480 μl of a suspension, containing 5×10^6 mononuclear cells. The synthesis of IL-1 was stimulated by the addition of 10 μl DSMO/water (1:10, v/v), containing 0,5 μg LPS (Salmonella abortus equi, Sigma). After incubation at 37° C. for 18 hours, the samples were cooled to 0° C. and centrifuged for 1 min. in a table centrifuge. […]

[6] = test system: KC1 induced contraction of guinea pig ileum; assay: KCl induced contraction of guinea pig ileum (specificity); format: cell-based; conditions: up to 7.11×10^-5 M
Method: (§3) The specificity of leukotriene antagonism was determined by inducing contraction of guinea pig ileum with agonists like histamine, acetylcholine and KC1. Compounds having specific effect against lipoxygenase products induced contraction normally would not show any inhibition of histamine, acetylcholine and KC1 induced contraction.

[7] = test system: histamine induced contraction of guinea pig ileum; assay: Histamine induced contraction of guinea pig ileum (specificity); format: cell-based; conditions: up to 7.11×10^-5 M
Method: as §3

[8] = test system: microanaphylactic shock of guinea pigs; assay: Inhibition of micro-anaphylactic shock of guinea pigs (egg albumin aerosol); format: in vivo, guinea pig; conditions: 20 mg/kg^-1, i.p. + pretreatment with indomethacin, 10 mg/kg
Text: Guinea pigs of either sex weighing between 300-350 g were sensitized with egg albumin absorbed over Al(OH)3 gel. After 21 days of sensitization, each animal was placed in an air tight perspex chamber and exposed to 0.5% egg albumin aerosol through EEL atomizer. EEL atomizer was operated by connecting it to pressurized air through a water trap and dial type sphygmomanometer at the constant air pressure of 180 mm Hg. The time of onset of asthma in seconds and recovery period in minutes was noted.
Each animal was exposed to egg albumin aerosol at an interval of 15 days to maintain the consistency of the reactivity of animals to the antigen. After 3 such control exposures, animals were subjected to drug treatment. On the day of the experiment one group of Guinea pigs consisting of 10 animals was kept as control exposing them only to 0.5% egg albumin aerosol. […] Fifteen mins. after the administration of the test compound the animals were exposed to 0.5% egg albumin aerosol.

[9] = test system: isolated guinea pig ileum precontracted with leukotrienes; assay: Relaxation of leukotriene induced contraction of isolated guinea pig ileum; format: cell-based; conditions: Cavia porcellus
Method: Guinea pigs of either sex weighing 300-350 g were sensitized with a suspension of aluminum hydroxide gel and egg albumin. After 21 days, each animal was exposed to 0.5% egg albumin aerosol in an air tight perspex chamber and only those animals which developed allergic bronchoconstriction were selected for further experiment.
The animals were tested for one week after antigenic exposure and then sacrificed by head blow and cutting carotid arteries. The lung was quickly removed and placed in aerated Tyrode solution kept at 37° C. The lung was cut into uniform strips and each strip was placed in an organ bath containing isolated guinea pig ileum connected to potentiometric recorder through isotonic transducer in the presence of Tyrode solution kept at 37° C. After a stabilizing period of 30 minutes, the reactivity of ileum to histamine was confirmed by challenging it with 100 ng-200 ng/ml of histamine. The perfusion fluid was then replaced by Tyrode solution containing Atropine (10^-7 M), Mepyramine maleate (10^-7 M) and methylsergide (10^-7 M). Three minutes later, lung strip was challenged by egg albumin (25 μg/ml) and release of leukotrienes was monitored in terms of slow contraction of ileum. The ileum was allowed to contract for 10-15 minutes when a plateau was achieved. The test compound (compound 4 of Table 1) was then added to observe the relaxation.
as §3

## COc1cc(OC)c([C@@H]2CCCC[C@H]2OC(=O)[C@H](C)N)c(O)c1C(=O)/C=C/c1cccc(Br)c1 [Compound 9 of Table 2, trans-(-)-2-[4,6-dimethoxy-2-hydroxy-3-(3-(3-bromophenyl)prop-2-(E)-enoyl)phenyl]cyclohexyl-2-(S)-amino propanoate hydrochloride]
IL-1
  inhibition at 5 µM: 55%
[1]
  bioavailability: 73%
[2]
  bioavailability: 46%
[3]
  reduction in the uninjected paw volumes: significant and dose dependent reduction
[4]
  reduction in the mortality rate: 45%
[4]; compared to untreated group
  clinical symptoms (clinical grading): significantly reduced

## COc1cc(OC)c([C@@H]2CCCC[C@H]2O)c(O)c1C(=O)/C=C/c1ccc(Cl)cc1 (relative stereo) [Compound 4 of Table 1, trans-(±)-2-[4,6-Dimethoxy-2-hydroxy-3-(3-(4-chlorophenyl)prop-2-(E)-enoyl)]phenylcyclohexanol]
[5]; 10 mg/kg
  % Inhibition of granuloma, Dry wt.: 35.6%
  % Inhibition of granuloma, Wet wt.: 21%
[5]; 20 mg/kg
  % Inhibition of granuloma, Dry wt.: 89.0%
  % Inhibition of granuloma, Wet wt.: 54%
[5]; 30 mg/kg
  % Inhibition of granuloma, Dry wt.: 82.8%
  % Inhibition of granuloma, Wet wt.: 64%
IL-1 alpha
  IC50: 200 to 300 nM
[6]
  Effect on KC1 induced contraction: No effect
[7]
  Effect on histamine induced contraction: No effect
[8]; control group 37 + 3.4
  Recovery period: 77.6 min
[8]; control group 75 + 8.7
  Onset Time: 149 s
[9]; Conc. 1.2 × 10^-6 M
  inhibition at 1.2 µM: 36.8%
[9]; Conc. 1.68 × 10^-6 M
  inhibition at 1.68 µM: 50.5%
[9]; Conc. 2.4 × 10^-6 M
  inhibition at 2.4 µM: 62.4%
[9]; Conc. 7.2 × 10^-6 M
  inhibition at 7.2 µM: 68%
[9]; relaxation of leukotriene precontracted ileum, read-out: App. IC50
  IC50: 1680 nM
